Experimental data as given in ChEMBL document CHEMBL2163248, “Classification of inhibitors of hepatic organic anion transporting polypeptides (OATPs): influence of protein expression on drug-drug interactions” (J Med Chem, 2012).
Where a SMILES comes first, the peptide text is derived from it.

Key:
[1] = molecular target: T1, Solute carrier organic anion transporter family member 1B1 (Homo sapiens, UniProt Q9Y6L6); test: Inhibition of human liver OATP1B1 expressed in HEK293 Flp-In cells assessed as reduction in E17-betaG uptake at 20 uM by scintillation counting; conditions: hek293, 20 µM
T1 sequence (Q9Y6L6 whole entry): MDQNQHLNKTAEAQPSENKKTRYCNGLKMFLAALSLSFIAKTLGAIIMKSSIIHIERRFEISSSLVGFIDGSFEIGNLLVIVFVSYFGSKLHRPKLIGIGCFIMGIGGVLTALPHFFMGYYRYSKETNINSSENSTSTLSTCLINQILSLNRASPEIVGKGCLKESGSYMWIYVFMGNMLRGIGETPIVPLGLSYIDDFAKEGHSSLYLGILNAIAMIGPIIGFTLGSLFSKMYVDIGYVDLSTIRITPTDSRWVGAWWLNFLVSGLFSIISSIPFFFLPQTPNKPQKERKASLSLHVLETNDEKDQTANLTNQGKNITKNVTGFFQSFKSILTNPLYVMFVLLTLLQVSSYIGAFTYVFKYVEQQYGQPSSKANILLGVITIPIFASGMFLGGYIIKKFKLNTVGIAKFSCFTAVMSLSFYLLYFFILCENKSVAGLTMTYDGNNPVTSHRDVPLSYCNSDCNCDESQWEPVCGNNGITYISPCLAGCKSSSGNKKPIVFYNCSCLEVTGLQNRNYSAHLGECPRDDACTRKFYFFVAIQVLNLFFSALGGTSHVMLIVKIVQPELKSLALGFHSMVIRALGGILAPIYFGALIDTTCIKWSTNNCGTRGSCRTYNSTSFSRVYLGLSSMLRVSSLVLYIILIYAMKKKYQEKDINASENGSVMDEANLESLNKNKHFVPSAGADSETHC

[2] = molecular target: T2, Solute carrier organic anion transporter family member 1B3 (Homo sapiens, UniProt Q9NPD5); test: Inhibition of human liver OATP1B3 expressed in HEK293 Flp-In cells assessed as reduction in [3H]E17-betaG uptake at 20 uM incubated for 5 mins by scintillation counting; conditions: hek293, 5 min
T2 sequence (Q9NPD5 whole entry): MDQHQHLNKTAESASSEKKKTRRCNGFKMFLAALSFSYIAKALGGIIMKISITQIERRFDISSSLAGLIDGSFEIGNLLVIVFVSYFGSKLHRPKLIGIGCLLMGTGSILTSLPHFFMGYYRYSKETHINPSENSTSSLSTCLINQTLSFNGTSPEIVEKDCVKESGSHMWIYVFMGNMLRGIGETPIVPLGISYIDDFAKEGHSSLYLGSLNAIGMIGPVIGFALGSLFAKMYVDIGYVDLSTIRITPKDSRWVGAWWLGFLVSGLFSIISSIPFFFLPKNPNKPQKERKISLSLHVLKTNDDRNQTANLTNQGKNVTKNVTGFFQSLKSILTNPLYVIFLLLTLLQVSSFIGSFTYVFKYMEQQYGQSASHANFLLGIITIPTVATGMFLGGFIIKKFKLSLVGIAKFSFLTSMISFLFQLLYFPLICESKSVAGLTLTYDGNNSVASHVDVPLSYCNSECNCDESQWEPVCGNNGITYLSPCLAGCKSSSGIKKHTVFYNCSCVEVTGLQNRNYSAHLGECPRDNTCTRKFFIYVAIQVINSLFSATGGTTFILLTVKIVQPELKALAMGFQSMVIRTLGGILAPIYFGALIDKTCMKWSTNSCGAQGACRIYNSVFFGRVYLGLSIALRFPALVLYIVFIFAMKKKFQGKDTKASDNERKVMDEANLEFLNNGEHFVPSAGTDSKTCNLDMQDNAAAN

[3] = molecular target: T3, Solute carrier organic anion transporter family member 2B1 (Homo sapiens, UniProt O94956); test: Inhibition of human liver OATP2B1 expressed in HEK293 Flp-In cells assessed as reduction in [3H]E3S uptake at 20 uM incubated for 5 mins by scintillation counting; conditions: hek293, 5 min
T3 sequence (O94956 whole entry): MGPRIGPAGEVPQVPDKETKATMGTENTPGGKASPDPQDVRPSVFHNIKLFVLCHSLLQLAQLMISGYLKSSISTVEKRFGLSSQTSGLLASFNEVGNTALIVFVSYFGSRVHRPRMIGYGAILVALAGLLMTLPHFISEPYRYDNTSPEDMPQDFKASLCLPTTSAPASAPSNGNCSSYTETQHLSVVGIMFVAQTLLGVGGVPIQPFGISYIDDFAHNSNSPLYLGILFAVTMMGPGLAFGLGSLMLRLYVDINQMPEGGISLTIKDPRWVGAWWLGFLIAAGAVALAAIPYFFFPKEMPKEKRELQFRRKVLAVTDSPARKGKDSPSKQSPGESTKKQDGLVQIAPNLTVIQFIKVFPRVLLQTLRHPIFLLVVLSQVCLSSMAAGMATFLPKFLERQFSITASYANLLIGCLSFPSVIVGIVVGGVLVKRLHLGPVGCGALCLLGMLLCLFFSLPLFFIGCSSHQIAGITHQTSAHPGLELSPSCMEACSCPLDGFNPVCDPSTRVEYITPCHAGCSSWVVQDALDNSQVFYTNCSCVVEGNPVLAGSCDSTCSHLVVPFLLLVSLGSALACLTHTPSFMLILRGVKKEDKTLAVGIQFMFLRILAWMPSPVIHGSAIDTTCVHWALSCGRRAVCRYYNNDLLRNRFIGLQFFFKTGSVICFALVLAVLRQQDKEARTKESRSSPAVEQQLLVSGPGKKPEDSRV

Compound | INH [1] [%] | INH [2] [%] | INH [3] [%]
CCOC(=O)C1=C(C)NC(C)=C(C(=O)OC)C1c1cccc(Cl)c1Cl (configuration not stated) [FELODIPINE] | 36.6 | 18.4 | 21.4
CC(NCCC(c1ccccc1)c1ccccc1)c1ccccc1 (configuration not stated) [FENDILINE] | 15 | 20.4 | -118.7
CC(C)OC(=O)C(C)(C)Oc1ccc(C(=O)c2ccc(Cl)cc2)cc1 [FENOFIBRATE] | 5.4 | -10.8 | 34.2
OC(Cn1cncn1)(Cn1cncn1)c1ccc(F)cc1F [FLUCONAZOLE] | 7.4 | 7.5 | 34.1
CNCCC(Oc1ccc(C(F)(F)F)cc1)c1ccccc1 (configuration not stated) [FLUOXETINE] | 21.8 | 14.3 | 22.6
CC(C)C(=O)Nc1ccc([N+](=O)[O-])c(C(F)(F)F)c1 [FLUTAMIDE] | 6.8 | 9 | 65.8
COCCCC/C(=N\OCCN)c1ccc(C(F)(F)F)cc1 [FLUVOXAMINE] | 43.8 | 29.2 | 39
Cc1nc2c([nH]1)c(=O)n(C)c(=O)n2Cc1ccco1 [FURAFYLLINE] | -14.7 | 0.7 | 18.1
Cc1ccc(C)c(OCCCC(C)(C)C(=O)O)c1 [GEMFIBROZIL] | 59.3 | 14.4 | 15.1
O=c1c(-c2ccc(O)cc2)coc2cc(O)cc(O)c12 [GENISTEIN] | 84.9 | -5 | 67.9
C[C@H](CCC(=O)NCC(=O)O)[C@H]1CC[C@H]2[C@@H]3[C@H](O)C[C@@H]4C[C@H](O)CC[C@]4(C)[C@H]3CC[C@]12C [GLYCOCHENODEOXYCHOLATE] | 80.2 | 72 | 65.3
C[C@H](CCC(=O)NCC(=O)O)[C@H]1CC[C@H]2[C@@H]3CC[C@@H]4C[C@H](O)CC[C@]4(C)[C@H]3C[C@H](O)[C@]12C [GLYCODEOXYCHOLATE] | 85 | 79 | 53.8
NCC(=O)N1CCC[C@H]1C(=O)O [GLYCYL PROLINE] (H-Gly-Pro-OH) | -8.4 | 9.6 | 24.1
CC1(C)[C@@H](O[C@H]2O[C@H](C(=O)O)[C@@H](O)[C@H](O)[C@H]2O[C@@H]2O[C@H](C(=O)O)[C@@H](O)[C@H](O)[C@H]2O)CC[C@]2(C)[C@H]3C(=O)C=C4[C@@H]5C[C@@](C)(C(=O)O)CC[C@]5(C)CC[C@@]4(C)[C@]3(C)CC[C@@H]12 [GLYCYRRHIZIN] | 65.8 | 90.9 | 28.7
CN[C@@H]1C[C@H](N)[C@@H](O)[C@H](O[C@H]2O[C@H](CO)[C@H](O)[C@@H]3O[C@@]4(O[C@@H]23)O[C@H]([C@H](N)CO)[C@H](O)[C@H](O)[C@H]4O)[C@H]1O [HYGROMYCIN] | 32.8 | -4.2 | 31.5
CC(C)Cc1ccc(C(C)C(=O)O)cc1 (configuration not stated) [IBUPROFEN] | 47.3 | -6.6 | 13.5
CN(C)CCCN1c2ccccc2CCc2ccccc21 [IMIPRAMINE] | 26.9 | -2.4 | 16.9

Compound | INH [1] [%] | INH [2] [%] | INH [3] [%]
CC1(C)C(/C=C/C=C/C=C/C=C2/N(CCCCS(=O)(=O)[O-])c3ccc4ccccc4c3C2(C)C)=[N+](CCCCS(=O)(=O)[O-])c2ccc3ccccc3c21.[Na+] [INDOCYANINE GREEN] | 86.1 | 100.1 | 79.2
COc1ccc2c(c1)c(CC(=O)O)c(C)n2C(=O)c1ccc(Cl)cc1 [INDOMETHACIN] | 88.6 | 48.6 | -82.4
CCc1c2c(nc3ccc(OC(=O)N4CCC(N5CCCCC5)CC4)cc13)-c1cc3c(c(=O)n1C2)COC(=O)[C@]3(O)CC [IRINOTECAN] | 40.5 | 26.9 | 16.3
NNC(=O)c1ccncc1 [ISONIAZID] | 29.9 | 18.7 | 23.8
COC(=O)C1=C(C)NC(C)=C(C(=O)OC(C)C)C1c1cccc2nonc12 (configuration not stated) [ISRADIPINE] | 47.5 | 7.7 | 12
CCC(C)n1ncn(-c2ccc(N3CCN(c4ccc(OCC5COC(Cn6cncn6)(c6ccc(Cl)cc6Cl)O5)cc4)CC3)cc2)c1=O (configuration not stated) [ITRACONAZOLE] | 22.3 | -2.3 | 59.8
CC(=O)N1CCN(c2ccc(OCC3COC(Cn4ccnc4)(c4ccc(Cl)cc4Cl)O3)cc2)CC1 (configuration not stated) [KETOCONAZOLE] | 53.6 | 24.7 | 44
Nc1nnc(-c2cccc(Cl)c2Cl)c(N)n1 [LAMOTRIGINE] | 24.9 | 14.5 | 13.6
Cc1c(OCC(F)(F)F)ccnc1C[S+]([O-])c1nc2ccccc2[nH]1 (configuration not stated) [LANSOPRAZOLE] | 31.4 | 23.3 | -75.7
NCCCC[C@H](N[C@@H](CCc1ccccc1)C(=O)O)C(=O)N1CCC[C@H]1C(=O)O [LISINOPRIL ANHYDROUS] | 4.6 | 9 | 19.2
CN(C)C(=O)C(CCN1CCC(O)(c2ccc(Cl)cc2)CC1)(c1ccccc1)c1ccccc1 [LOPERAMIDE] | 32.5 | 32.4 | 19.6
Cc1cccc(C)c1OCC(=O)N[C@@H](Cc1ccccc1)[C@@H](O)C[C@H](Cc1ccccc1)NC(=O)[C@H](C(C)C)N1CCCNC1=O [LOPINAVIR] | 85.8 | 84.6 | 86.4
CC[C@H](C)C(=O)O[C@H]1C[C@@H](C)C=C2C=C[C@H](C)[C@H](CC[C@@H]3C[C@@H](O)CC(=O)O3)[C@H]21 [LOVASTATIN] | 66.5 | 21.3 | -17.9
CCC1(c2ccccc2)NC(=O)N(C)C1=O (configuration not stated) [MEPHENYTOIN] | -5.7 | -0.6 | 32.9
CN(Cc1cnc2nc(N)nc(N)c2n1)c1ccc(C(=O)N[C@@H](CCC(=O)O)C(=O)O)cc1 [METHOTREXATE] | 27.4 | 17.2 | -13.4
COc1c2occc2cc2ccc(=O)oc12 [METHOXSALEN] | 38.1 | 8.9 | -1.6
COCCc1ccc(OCC(O)CNC(C)C)cc1 (configuration not stated) [METOPROLOL] | 28.1 | 19.8 | 30.5
